According to US9522928B2, “Mannosylated compounds useful for the prevention and the treatment of infectious diseases” (UNIVERSITE DE STRASBOURG, priority 2011, dated 2016):
pKd: −log10 of the molar value. Entries after “also recorded” stand apart in the source; their conditions may differ.

Legend:
DC-SIGN CRD = target: T1, DC-SIGN CRD (Homo sapiens, UniProt Q9NNX6); test: Surface plasmon resonance (SPR) binding to immobilised DC-SIGN CRD; conditions: Kd=koff/kon
T1 construct: human DC-SIGN (Lys62-Ala404, from R§D Systems); purchased R&D Systems ('R§D Systems' [sic])
T1 sequence (Q9NNX6 62-404): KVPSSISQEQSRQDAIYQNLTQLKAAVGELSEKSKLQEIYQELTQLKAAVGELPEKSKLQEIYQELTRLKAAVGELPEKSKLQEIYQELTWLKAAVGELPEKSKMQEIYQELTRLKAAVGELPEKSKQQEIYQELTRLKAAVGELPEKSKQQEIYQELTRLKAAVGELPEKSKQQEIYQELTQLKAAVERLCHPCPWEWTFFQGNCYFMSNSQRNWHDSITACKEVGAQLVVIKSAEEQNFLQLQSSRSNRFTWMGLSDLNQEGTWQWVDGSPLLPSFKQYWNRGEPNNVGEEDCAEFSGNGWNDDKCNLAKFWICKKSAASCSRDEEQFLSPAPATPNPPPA
Method: SPR experiments were performed using a Biacore 3000. […] Biosensor assays were performed with HEPES-buffered saline (10 mM HEPES, 150 mM sodium chloride, pH 7.4) containing 0.005% surfactant P20 and 5 mM CaCl2 as a running buffer. All binding experiments were carried out at 25° C. with a constant flow rate of 20 μl/min. The different compounds dissolved in the running buffer (0.39 to 50 μM) were injected for 3 min, followed by a dissociation phase of 3 min. The sensor chip surface was regenerated after each experiment by injecting 10 μL of EDTA 0.5 M pH 8.0. A simple channel activated by EDC/NHS and deactivated with ethanolamine was used as control. The kinetic parameters were calculated using the BlAeval 4.1 software. Analysis was performed using the simple Langmuir binding model with separate ka/kd (kon/koff). The specific binding profiles were obtained after subtracting the response signal from the control channel and from blank-buffer injection. The fitting to each model was judged by the chi square value and randomness of residue distribution compared to the theoretical model (Langmuir binding 1:1).
The binding affinity of mannoside derivatives for the carbohydrate recognition domain (CRD) of DC-SIGN was assessed by surface plasmon resonance (SPR).
A CM5 sensor chip was functionalized with the DC-SIGN CRD, and increasing concentrations of the various compounds, mannan as a positive control and octaethyleneglycol (OEG) as a negative control, were injected over the chip surface. The association (kon) and dissociation (koff) rate constants and the resulting dissociation equilibrium constant (Kd=koff/kon) for each assessed compound were determined (see Table 1 hereunder).

Dengue virus 2 (DV2) = test: Dengue virus (DV2) cis-infection of human DCs; assay type: cell-based
Method: Compounds of the invention (TriManC24, TriManinsatC24) were serially diluted in water. Human DCs (2.5×10^5 in 200 μl) in 48-well plates were pre-treated with different concentrations of compounds or culture medium alone, in RPMI 1640 medium […] for 30 min at 37° C. They were exposed to DV-2 at a multiplicity of infection of 1.0, for 2 h at 37° C. Cells were washed and cultured in complete RPMI medium (condition 1) or in complete medium containing the tested compounds (TriManC24, TriMannsatC24) (condition 2). After 48 h, supernatants were titered and cells were subjected to intracellular detection of viral antigens. DCs were fixed with 4% (v/v) paraformaldehyde and permeabilized with 0.1% (v/v) Triton X-100 for 3 min at room temperature. After washing, they were labeled with mouse anti-DV type 2 monoclonal antibody (3H5.1, Millipore) and stained with APC -conjugated rat anti-mouse IgG1. Fluorescence intensity of the cells was analyzed by flow cytometry (FACSCalibur, Becton Dickinson), using the Cell Quest Pro software.
There are four different dengue serotypes (1-4), and we have used DV type 2 (DV2) to further investigate the ability of the compounds of the invention (TriManC24 and TriManinsatC24) to inhibit the infection of human DCs. These cells were pre-treated with different concentrations of compounds or culture medium alone, for 30 min at 37° C. They were then exposed to DV2 for 2 hours at 37° C. Cells were washed to remove excess virions and compounds, and further cultured either in the absence (condition 1) or in the presence (condition 2) of the tested compounds. After 48 hours, cells were subjected to intracellular detection of viral antigens, and supernatants were titrated (not shown). […] FIG. 3A and FIG. 3B show the percentage of infected DCs when incubated with distinct concentrations of TriManinsatC24 in condition 1 and in condition 2, respectively. The histograms clearly show the protecting effects of TriManinsatC24, in particular in condition 2 wherein TriManinsatC24 at 10, 50 and 100 μM enabled the percentage of infected DCs to be reduced down to 40%, 20% and 2% respectively.

In the case of `CCCCCCCCCCCCCCCCCCCCCCCCC(=O)NC(COCCC(=O)NCCOCCOCCOCCOC1OC(CO)C(O)C(O)C1O)(COCCC(=O)NCCOCCOCCOCCOC1OC(CO)C(O)C(O)C1O)COCCC(=O)NCCOCCOCCOCCOC1OC(CO)C(O)C(O)C1O` (stereo not drawn) [TriManC24], the “KD (μM)” value (DC-SIGN CRD) was “low micromolar range; also recorded: Sub-micromolar”, the pKd (DC-SIGN CRD) was 5.50 and the “inhibition of Dengue virus infection of DCs (in words)” value (Dengue virus 2 (DV2)) was “able to inhibit the direct infection of DCs by Dengue virus”.
